Data from US12227495B2, “Herbicidal compounds” (SYNGENTA CROP PROTECTION AG, priority 2018, dated 2025).

Key:
Format in all cases: in vivo
[1] = tested on: Amaranthus retoflexus (AMARE); assay: Post-emergence herbicide test, glasshouse, percentage damage; settings: 1000 g/ha, evaluated after 13 days
Method in brief: (§1)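 Pot-grown plants were sprayed at 500 g/ha unless otherwise stated, in acetone/water (50:50) with 0.5% Tween 20. Pre-emergence spraying was 1 day after sowing and post-emergence after 8 days, in a glasshouse at 24/16° C, 14 h light, 65% humidity. Percentage damage was scored 13 days later on a 1–5 scale (5=81-100%).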

[2] = tested on: Echinochloa crus-galli (ECHCG); assay: as above; settings: 1000 g/ha, evaluated after 13 days
Method in brief: as §1

[3] = tested on: Ipomoea hederacea (IPOHE); assay: as above; settings: 1000 g/ha, evaluated after 13 days
Method in brief: as §1

[4] = tested on: Lolium perenne (LOLPE); assay: as above; settings: 1000 g/ha, evaluated after 13 days
Method in brief: as §1

[5] = tested on: Setaria faberi (SETFA); assay: as above; settings: 1000 g/ha, evaluated after 13 days
Method in brief: as §1

[6] = tested on: Solanum nigrum (SOLNI); assay: as above; settings: 1000 g/ha, evaluated after 13 days
Method in brief: as §1

[7] = tested on: Amaranthus retoflexus (AMARE); assay: Pre-emergence herbicide test, glasshouse, percentage damage; settings: rate 1000 g/ha, evaluated after 13 days
Method in brief: as §1

[8] = tested on: Echinochloa crus-galli (ECHCG); assay: as above; settings: rate 1000 g/ha, evaluated after 13 days
Method in brief: as §1

[9] = tested on: Ipomoea hederacea (IPOHE); assay: as above; settings: rate 1000 g/ha, evaluated after 13 days
Method in brief: as §1

[10] = tested on: Lolium perenne (LOLPE); assay: as above; settings: rate 1000 g/ha, evaluated after 13 days
Method in brief: as §1

[11] = tested on: Setaria faberi (SETFA); assay: as above; settings: rate 1000 g/ha, evaluated after 13 days
Method in brief: as §1

[12] = tested on: Solanum nigrum (SOLNI); assay: as above; settings: rate 1000 g/ha, evaluated after 13 days
Method in brief: as §1

Structure (SMILES)	percentage damage caused to the plant, AMARE [1]	percentage damage caused to the plant, ECHCG [2]	percentage damage caused to the plant, IPOHE [3]	percentage damage caused to the plant, LOLPE [4]	percentage damage caused to the plant, SETFA [5]	percentage damage caused to the plant, SOLNI [6]	Pre-emergence Test AMARE percentage damage (five point scale) [7]	Pre-emergence Test ECHCG percentage damage (five point scale) [8]	Pre-emergence Test IPOHE percentage damage (five point scale) [9]	Pre-emergence Test LOLPE percentage damage (five point scale) [10]	Pre-emergence Test SETFA percentage damage (five point scale) [11]	Pre-emergence Test SOLNI percentage damage (five point scale) [12]
O=[N+]([O-])c1ccc(Oc2cccc(Cl)c2-c2cc(C(F)F)no2)nc1 [Compound A108]	5 (5=81-100%)	4 (4=61-80%)	3 (3=41-60%)	4 (4=61-80%)	4 (4=61-80%)	4 (4=61-80%)	4 (4=61-80%)	5 (5=81-100%)	1 (1=0-20%)	5 (5=81-100%)	5 (5=81-100%)	4 (4=61-80%)
FC(F)c1cc(-c2c(Cl)cccc2Oc2ncc(Cl)cc2Cl)on1 [Compound A109]	5 (5=81-100%)	4 (4=61-80%)	4 (4=61-80%)	3 (3=41-60%)	5 (5=81-100%)	5 (5=81-100%)	4 (4=61-80%)	2 (2=21-40%)	1 (1=0-20%)	2 (2=21-40%)	4 (4=61-80%)	3 (3=41-60%)
FC(F)c1cc(-c2c(Cl)cccc2Oc2ccc(C(F)(F)F)cn2)on1 [Compound A110]	5 (5=81-100%)	4 (4=61-80%)	4 (4=61-80%)	4 (4=61-80%)	5 (5=81-100%)	5 (5=81-100%)	5 (5=81-100%)	4 (4=61-80%)	4 (4=61-80%)	4 (4=61-80%)	5 (5=81-100%)	4 (4=61-80%)
Fc1cccc(Oc2cccc(Cl)c2-c2cc(C(F)F)no2)n1 [Compound A111]	5 (5=81-100%)	4 (4=61-80%)	4 (4=61-80%)	4 (4=61-80%)	5 (5=81-100%)	5 (5=81-100%)	5 (5=81-100%)	5 (5=81-100%)	1 (1=0-20%)	4 (4=61-80%)	5 (5=81-100%)	4 (4=61-80%)
FC(F)c1cc(-c2c(Cl)cccc2Oc2cc(C(F)(F)F)ccn2)on1 [Compound A112]	4 (4=61-80%)	3 (3=41-60%)	3 (3=41-60%)	3 (3=41-60%)	4 (4=61-80%)	4 (4=61-80%)	5 (5=81-100%)	4 (4=61-80%)	1 (1=0-20%)	3 (3=41-60%)	5 (5=81-100%)	2 (2=21-40%)
FC(F)c1cc(-c2c(Cl)cccc2Oc2ccc(Cl)cn2)on1 [Compound A113]	5 (5=81-100%)	4 (4=61-80%)	5 (5=81-100%)	5 (5=81-100%)	5 (5=81-100%)	4 (4=61-80%)	5 (5=81-100%)	5 (5=81-100%)	4 (4=61-80%)	5 (5=81-100%)	5 (5=81-100%)	4 (4=61-80%)
Fc1cnc(Oc2cccc(Cl)c2-c2cc(C(F)F)no2)c(F)c1 [Compound A114]	5 (5=81-100%)	4 (4=61-80%)	5 (5=81-100%)	4 (4=61-80%)	5 (5=81-100%)	5 (5=81-100%)	5 (5=81-100%)	5 (5=81-100%)	5 (5=81-100%)	5 (5=81-100%)	5 (5=81-100%)	4 (4=61-80%)
N#Cc1ccc(Oc2cccc(Cl)c2-c2cc(C(F)F)no2)nc1 [Compound A115]	5 (5=81-100%)	4 (4=61-80%)	5 (5=81-100%)	4 (4=61-80%)	5 (5=81-100%)	5 (5=81-100%)	5 (5=81-100%)	5 (5=81-100%)	5 (5=81-100%)	5 (5=81-100%)	5 (5=81-100%)	4 (4=61-80%)
Fc1cc(Br)cnc1Oc1cccc(Cl)c1-c1cc(C(F)F)no1 [Compound A116]	5 (5=81-100%)	4 (4=61-80%)	5 (5=81-100%)	5 (5=81-100%)	5 (5=81-100%)	5 (5=81-100%)	5 (5=81-100%)	5 (5=81-100%)	4 (4=61-80%)	5 (5=81-100%)	5 (5=81-100%)	4 (4=61-80%)
Fc1cc(C(F)(F)F)cnc1Oc1cccc(Cl)c1-c1cc(C(F)F)no1 [Compound A117]	5 (5=81-100%)	4 (4=61-80%)	5 (5=81-100%)	4 (4=61-80%)	4 (4=61-80%)	4 (4=61-80%)	5 (5=81-100%)	4 (4=61-80%)	5 (5=81-100%)	4 (4=61-80%)	5 (5=81-100%)	2 (2=21-40%)
